Test results reported in PubChem BioAssay (NCI).
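Step 1: Grow cells in 96-well plates. Step 2: Expose to compound for 48 hours at 5 concentrations. Step 3: Interpolate endpoints linearly; if unreached, use highest concentration. At the GI50, growth is halved. TGI: concentration producing complete growth inhibition.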

Key:
Assay in all cases: NCI anticancer screen, dose series, 48 h
[1] = system: HOP-62 NSCLC
[2] = system: SNB-75 CNS
[3] = system: SF-539 CNS
[4] = system: MOLT-4 leukemia
[5] = system: UACC-257 melanoma
[6] = system: OVCAR-3 ovarian
[7] = system: HCT-116 colon
[8] = system: HCT-15 colon
[9] = system: SF-295 CNS
[10] = system: UO-31 renal
[11] = system: KM12 colon
[12] = system: OVCAR-5 ovarian
[13] = system: RPMI-8226 leukemia
[14] = system: SK-MEL-2 melanoma
[15] = system: MDA-MB-231 breast
[16] = system: HOP-92 NSCLC
[17] = system: NCI-H226 lung
[18] = system: U251 CNS
[19] = system: UACC-62 melanoma
[20] = system: BT-549 breast
[21] = system: HS 578T breast
[22] = system: ACHN renal
[23] = system: MDA-MB-435
[24] = system: SK-OV-3 ovarian
[25] = system: SN12C renal
[26] = system: K-562 leukemia
[27] = system: HT29 colon
[28] = system: SK-MEL-28 melanoma
[29] = system: SK-MEL-5 melanoma
[30] = system: IGROV1 ovarian
[31] = system: T-47D breast
[32] = system: MALME-3M melanoma
[33] = system: HCC-2998 colon
[34] = system: DU-145 prostate
[35] = system: A549 NSCLC
[36] = system: 786-0 renal
[37] = system: MCF7 breast
[38] = system: SR leukemia
[39] = system: CCRF-CEM leukemia
[40] = system: CAKI-1 renal
[41] = system: COLO 205 colon
[42] = system: OVCAR-8 ovarian
[43] = system: NCI-H460 lung
[44] = system: M14 melanoma
[45] = system: PC-3 prostate
[46] = system: EKVX NSCLC
[47] = system: NCI-H522 lung
[48] = system: A498 renal
[49] = system: TK-10 renal
[50] = system: NCI/ADR-RES ovarian
[51] = system: SF-268 CNS
[52] = system: OVCAR-4 ovarian
[53] = system: SW-620 colon
[54] = system: HL-60(TB) leukemia
[55] = system: NCI-H23 lung
[56] = system: RXF 393 renal
[57] = system: SNB-19 CNS

**Q.** `CN1CCc2c(sc3ncnc(N/N=C/c4ccc(Cl)c(Cl)c4)c23)C1` was tested. Which GI50 [1] did it give?
**A.** The GI50 was 10.2 µM.

**Q.** And the TGI [1]?
**A.** Its TGI is 41.4 µM.

**Q.** And the GI50 [2]?
**A.** The GI50 was 14.6 µM.

**Q.** What about the TGI [2] of the same molecule?
**A.** Its TGI is 28.6 µM.

**Q.** What about the GI50 [3] of the same molecule?
**A.** The GI50 was 13.8 µM.

**Q.** And the TGI [3]?
**A.** The TGI was 29.8 µM.

**Q.** What about the GI50 [4] of the same molecule?
**A.** The GI50 was 11.9 µM.

**Q.** What about the TGI [4] of the same molecule?
**A.** The TGI was 43.6 µM.

**Q.** And the GI50 [5]?
**A.** Its GI50 is 14.8 µM.

**Q.** And the TGI [5]?
**A.** Its TGI is 30.2 µM.

**Q.** What about the GI50 [6] of the same molecule?
**A.** The GI50 was 15.7 µM.

**Q.** And the TGI [6]?
**A.** Its TGI is 30.1 µM.

**Q.** And the GI50 [7]?
**A.** Its GI50 is 13.7 µM.

**Q.** And the TGI [7]?
**A.** Its TGI is 44.4 µM.

**Q.** And the GI50 [8]?
**A.** The GI50 was 6.61 µM.

**Q.** What about the TGI [8] of the same molecule?
**A.** The TGI was 22.2 µM.

**Q.** What about the GI50 [9] of the same molecule?
**A.** The GI50 was 13 µM.

**Q.** And the TGI [9]?
**A.** Its TGI is 27.9 µM.

**Q.** And the GI50 [10]?
**A.** Its GI50 is 10.1 µM.

**Q.** What about the TGI [10] of the same molecule?
**A.** Its TGI is 22.7 µM.

**Q.** What about the GI50 [11] of the same molecule?
**A.** The GI50 was 17.9 µM.

**Q.** What about the TGI [11] of the same molecule?
**A.** Its TGI is 34 µM.

**Q.** And the GI50 [12]?
**A.** The GI50 was 15.3 µM.

**Q.** What about the TGI [12] of the same molecule?
**A.** The TGI was 30.9 µM.

**Q.** What about the GI50 [13] of the same molecule?
**A.** Its GI50 is 17 µM.

**Q.** What about the TGI [13] of the same molecule?
**A.** The TGI was 66.4 µM.

**Q.** And the GI50 [14]?
**A.** The GI50 was 38.4 µM.

**Q.** And the TGI [14]?
**A.** Its TGI is over 100 µM.

**Q.** And the GI50 [15]?
**A.** Its GI50 is 12.4 µM.

**Q.** And the TGI [15]?
**A.** The TGI was 26.8 µM.

**Q.** What about the GI50 [16] of the same molecule?
**A.** The GI50 was 7.63 µM.

**Q.** What about the TGI [16] of the same molecule?
**A.** The TGI was 34.3 µM.

**Q.** What about the GI50 [17] of the same molecule?
**A.** Its GI50 is 77.9 µM.

**Q.** And the TGI [17]?
**A.** The TGI was over 100 µM.

**Q.** And the GI50 [18]?
**A.** The GI50 was 17.1 µM.

**Q.** And the TGI [18]?
**A.** Its TGI is 35.8 µM.

**Q.** What about the GI50 [19] of the same molecule?
**A.** Its GI50 is 14.9 µM.

**Q.** What about the TGI [19] of the same molecule?
**A.** The TGI was 29.6 µM.

**Q.** And the GI50 [20]?
**A.** The GI50 was 14 µM.

**Q.** What about the TGI [20] of the same molecule?
**A.** The TGI was 33 µM.

**Q.** What about the GI50 [21] of the same molecule?
**A.** The GI50 was 22.1 µM.

**Q.** And the TGI [21]?
**A.** The TGI was 65.8 µM.

**Q.** And the GI50 [22]?
**A.** Its GI50 is 15.1 µM.

**Q.** What about the TGI [22] of the same molecule?
**A.** The TGI was 31.5 µM.

**Q.** And the GI50 [23]?
**A.** Its GI50 is 18.2 µM.

**Q.** What about the TGI [23] of the same molecule?
**A.** The TGI was 34.4 µM.

**Q.** And the GI50 [24]?
**A.** Its GI50 is 17.1 µM.

**Q.** What about the TGI [24] of the same molecule?
**A.** Its TGI is 34.8 µM.

**Q.** And the GI50 [25]?
**A.** The GI50 was 11.5 µM.

**Q.** And the TGI [25]?
**A.** Its TGI is 26.3 µM.

**Q.** What about the GI50 [26] of the same molecule?
**A.** Its GI50 is 12.5 µM.

**Q.** And the TGI [26]?
**A.** Its TGI is 57 µM.

**Q.** And the GI50 [27]?
**A.** Its GI50 is 13.6 µM.

**Q.** And the TGI [27]?
**A.** The TGI was 29.3 µM.

**Q.** And the GI50 [28]?
**A.** Its GI50 is 13.7 µM.

**Q.** And the TGI [28]?
**A.** The TGI was 29.8 µM.

**Q.** And the GI50 [29]?
**A.** Its GI50 is 13.7 µM.

**Q.** What about the TGI [29] of the same molecule?
**A.** The TGI was 28.5 µM.

**Q.** And the GI50 [30]?
**A.** Its GI50 is 15.6 µM.

**Q.** And the TGI [30]?
**A.** The TGI was 31.8 µM.

**Q.** What about the GI50 [31] of the same molecule?
**A.** The GI50 was 19.9 µM.

**Q.** And the TGI [31]?
**A.** The TGI was 49.9 µM.

**Q.** And the GI50 [32]?
**A.** Its GI50 is 14.1 µM.

**Q.** What about the TGI [32] of the same molecule?
**A.** Its TGI is 28.5 µM.

**Q.** What about the GI50 [33] of the same molecule?
**A.** Its GI50 is 9.8 µM.

**Q.** What about the TGI [33] of the same molecule?
**A.** The TGI was 25.7 µM.

**Q.** And the GI50 [34]?
**A.** Its GI50 is 14.5 µM.

**Q.** And the TGI [34]?
**A.** The TGI was 28.5 µM.

**Q.** What about the GI50 [35] of the same molecule?
**A.** Its GI50 is 11 µM.

**Q.** And the TGI [35]?
**A.** Its TGI is 32.1 µM.

**Q.** What about the GI50 [36] of the same molecule?
**A.** Its GI50 is 12.4 µM.

**Q.** And the TGI [36]?
**A.** Its TGI is 32.1 µM.

**Q.** And the GI50 [37]?
**A.** The GI50 was 3.94 µM.

**Q.** What about the TGI [37] of the same molecule?
**A.** The TGI was 18.6 µM.

**Q.** What about the GI50 [38] of the same molecule?
**A.** The GI50 was 2.52 µM.

**Q.** And the TGI [38]?
**A.** The TGI was 8.04 µM.

**Q.** And the GI50 [39]?
**A.** Its GI50 is 14 µM.

**Q.** What about the TGI [39] of the same molecule?
**A.** The TGI was over 100 µM.

**Q.** And the GI50 [40]?
**A.** The GI50 was 15.2 µM.

**Q.** What about the TGI [40] of the same molecule?
**A.** Its TGI is 29.1 µM.

**Q.** And the GI50 [41]?
**A.** The GI50 was 10.6 µM.

**Q.** What about the TGI [41] of the same molecule?
**A.** Its TGI is 27.5 µM.

**Q.** What about the GI50 [42] of the same molecule?
**A.** The GI50 was 14.1 µM.

**Q.** And the TGI [42]?
**A.** The TGI was 39.7 µM.

**Q.** And the GI50 [43]?
**A.** Its GI50 is 16.4 µM.

**Q.** And the TGI [43]?
**A.** The TGI was 34.7 µM.

**Q.** And the GI50 [44]?
**A.** The GI50 was 17.6 µM.

**Q.** And the TGI [44]?
**A.** The TGI was 43.8 µM.

**Q.** And the GI50 [45]?
**A.** Its GI50 is 18.1 µM.

**Q.** And the TGI [45]?
**A.** Its TGI is 43.9 µM.

**Q.** What about the GI50 [46] of the same molecule?
**A.** The GI50 was 19.1 µM.

**Q.** What about the TGI [46] of the same molecule?
**A.** Its TGI is 39 µM.

**Q.** What about the GI50 [47] of the same molecule?
**A.** Its GI50 is 11.7 µM.

**Q.** And the TGI [47]?
**A.** Its TGI is 28.3 µM.

**Q.** What about the GI50 [48] of the same molecule?
**A.** The GI50 was 19.9 µM.

**Q.** What about the TGI [48] of the same molecule?
**A.** The TGI was 35.6 µM.

**Q.** What about the GI50 [49] of the same molecule?
**A.** Its GI50 is 21.2 µM.

**Q.** And the TGI [49]?
**A.** The TGI was 36.1 µM.

**Q.** And the GI50 [50]?
**A.** The GI50 was 14.3 µM.

**Q.** And the TGI [50]?
**A.** The TGI was 34.1 µM.

**Q.** And the GI50 [51]?
**A.** Its GI50 is 16.5 µM.

**Q.** What about the TGI [51] of the same molecule?
**A.** The TGI was 39.4 µM.

**Q.** What about the GI50 [52] of the same molecule?
**A.** Its GI50 is 15.5 µM.

**Q.** And the TGI [52]?
**A.** The TGI was 30.9 µM.

**Q.** And the GI50 [53]?
**A.** The GI50 was 12.1 µM.

**Q.** And the TGI [53]?
**A.** The TGI was 29.8 µM.

**Q.** And the GI50 [54]?
**A.** Its GI50 is 2.04 µM.

**Q.** What about the TGI [54] of the same molecule?
**A.** Its TGI is 4.83 µM.

**Q.** What about the GI50 [55] of the same molecule?
**A.** The GI50 was 13.5 µM.

**Q.** And the TGI [55]?
**A.** The TGI was 31.2 µM.

**Q.** And the GI50 [56]?
**A.** Its GI50 is 12.8 µM.

**Q.** And the TGI [56]?
**A.** The TGI was 28.1 µM.

**Q.** And the GI50 [57]?
**A.** The GI50 was 15.4 µM.

**Q.** And the TGI [57]?
**A.** Its TGI is 35.6 µM.
